# Values quoted from earlier work as cited in patent publication US7195789B2, “Non-fiber extract of psyllium with anti-tumorigenic effects and method for identifying the same” (Board of Trustees of Michigan State University, priority 2002, dated 2007).
# Columns and labels:
# [1] = tested on: ras protein (p21^ras); conditions: Na et al. 2000
# [2] = tested on: WB-Ha-ras cells; conditions: WB-Ha-ras cell line; Na et al. 2000
# [3] = tested on: connexin 43; conditions: Na et al. 2000
# [4] = tested on: WB-Ha-ras cells; conditions: WB-Ha-ras cell line; Na et al. 2000; remark: listed apart in the source
structure (smiles),measurement,setting,value
"O=C(/C=C/c1ccc(O)c(O)c1)OCCc1ccccc1 [CAPE, phenylethyl ester of caffeic acid]",protein level of p21^ras by Western blot,[1],decreased
same,inhibition of AIG,[2],inhibited AIG
same,expression of hyperphosphorylated Cx43,[3],restored
same,restoration of GJIC,[4],restored GJIC
